Measurements from US8039444B2, “Antisense permeation enhancers” (Isis Pharmaceuticals, Inc., priority 2001, dated 2011).

Conditions: monkey, not told, po

GCTGATTAGAGAGAGGTCCC (GCTGATTAGAGAGAGGTCCC; chemistry not given here) [antisense oligonucleotide]
permeability: poor permeability
